Data set [1] has as its target T1, prolyl endopeptidase from canine brain (Canis lupus familiaris, UniProt A0A8I3N6C8).
T1 construct: A prolyl endopeptidase was prepared from canine brains; from tissue; host or cells: canine brain
Put plainly: Inhibitory activity against prolyl endopeptidase from brain (Test Example 1). The data set is classed as biochemical. How it is done: Following buffer solutions A and B were used for the measurement.
Buffer A: 20 mM Tris-HCl buffer (pH 7.0)
Buffer B: Buffer A containing 0.1% gelatin, 1 mM EDTA, 1 mM 2-mercaptoethanol.
Dilution of the prolyl endopeptidase preparation with Buffer B to a concentration of 0.4 units/ml was done, and the resulting solution was defined as enzyme solution. To 940 μl of Buffer A was added 50 μl of the enzyme solution, followed by incubating at 37° C. for 10 minutes, to which was added 10 μl of a solution of a sample compound dissolved in dimethyl sulfoxide, and stirred and mixed together, followed by staying at 37° C. for ten minutes. To the mixture was added 100 μl of carbobenzoxyglycylprolyl p-nitroanilide dissolved in 40% dioxane to a final concentration of 2.5 mM, for reaction at 37° C. for 10 minutes, to which was added 100 μl of 50% acetic acid containing 10% Triton X-100, thereby terminating the reaction.
For controls, dimethyl sulfoxide was added at the same amount (10 μl) instead of the solution of the sample compound; for blind tests, dimethyl sulfoxide and Buffer B were added instead of a sample compound and the enzyme solution, respectively, at the same amounts for effecting the same procedure.

For a further data set, the system named is ICR male mice. Put plainly: Anti-hypoxic activity (Test Example 2), survival time under 4% O2 / 96% N2. The note with it: 100 mg/kg, intraperitoneal, 30 min before gas; control = 100. The data set is classed as in vivo. How it is done: Groups of ICR male mice (Charles River Co.), age 4 to 5 weeks, each group consisting of 10 mice and each mouse having been fasted for 24 hours, were used for the test. Mice were placed in a transparent desiccator (diameter: 19 cm, height: 30 cm) made of synthetic resin and having 2 valves, one at the upper portion and the other at the lower portion, for replacing the gas therein. […] The time measured was taken as the survival time.
Each tested compound suspended in an solvent was intraperitoneally administered 30 minutes before the start of the mixed gas feeding. A group of mice to which only the solvent was intraperitoneally administered was used as a control.
The anti-hypoxic activity was determined according to the following equation: [formula]

The test system of the next data set is ICR mice. Put plainly: Toxicity test; Parenteral administration (Test Example 4). It is filed as in vivo. The note with it: 300 mg/kg parenteral, 7 days observation. How it is done:
Test Example 4 (Toxicity test; Parenteral administration)
Ten ICR mice (Charles River, Co.), male, aged 4 to 5 weeks, were employed per group. The compounds of Examples 1, 5, 8 and 12 were separately suspended in 10% gum arabic, and then, they were individually administered parenterally at a dose of 300 mg/kg for subsequent observation for 7 days. As a result, no death was counted under the above conditions.

The test system of the next data set is Male ICR mice. The data set is described as follows: Toxicity test; Oral administration (Test Example 5). The data set is classed as in vivo. The settings on record: 1,000 mg/kg oral, 7 days observation. The method, then:
Test Example 5 (Toxicity test; Oral administration)
Five male ICR mice (Charles River, Co.) of age 5 weeks, were employed per group. The compound of Example 22 was suspended in a solvent, which was then administered orally at a dose of 1,000 mg/kg for subsequent observation for 7 days. As a result, no death was counted under the above conditions.

Setting [2] is: canine brain enzyme, carbobenzoxyglycylprolyl p-nitroanilide substrate, 37° C., pH 7.0, read-out: Inhibition Potency IC50.

Read-outs that look alike come from different tables or passages of the source.

The text below walks through data of US5407950A, “Arylalkanoylamine derivative and drug containing the same” (priority 1990, dated 1995).

By IC50 is commonly meant the concentration at which inhibition is half-maximal.

T1 sequence (A0A8I3N6C8 1-710): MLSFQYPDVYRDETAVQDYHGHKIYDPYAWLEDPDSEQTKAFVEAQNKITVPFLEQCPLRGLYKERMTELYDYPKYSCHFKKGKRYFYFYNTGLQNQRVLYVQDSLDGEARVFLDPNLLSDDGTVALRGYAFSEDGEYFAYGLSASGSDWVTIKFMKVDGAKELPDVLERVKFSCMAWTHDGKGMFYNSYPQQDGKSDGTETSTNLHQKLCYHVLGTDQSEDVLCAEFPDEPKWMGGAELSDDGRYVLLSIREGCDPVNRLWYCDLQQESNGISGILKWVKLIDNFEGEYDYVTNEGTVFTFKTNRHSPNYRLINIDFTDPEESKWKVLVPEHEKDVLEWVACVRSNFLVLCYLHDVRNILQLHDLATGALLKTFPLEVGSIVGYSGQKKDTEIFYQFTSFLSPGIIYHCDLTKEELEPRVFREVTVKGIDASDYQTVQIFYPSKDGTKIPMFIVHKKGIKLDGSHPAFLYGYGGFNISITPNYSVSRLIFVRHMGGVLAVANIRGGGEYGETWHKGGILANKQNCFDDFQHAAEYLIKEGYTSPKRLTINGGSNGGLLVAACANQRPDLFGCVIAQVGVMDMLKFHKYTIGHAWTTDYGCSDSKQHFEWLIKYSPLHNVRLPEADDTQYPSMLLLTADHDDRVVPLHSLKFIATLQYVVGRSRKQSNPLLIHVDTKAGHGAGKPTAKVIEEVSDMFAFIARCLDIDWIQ

Regarding `COc1ccc(C(=O)N2CCCC2=O)cc1` [Aniracetam, reference compound], the IC50 in data set [1] was above 1000 µM. Further, the “Anti-hypoxic Activity” value in the data set with ICR male mice stood at 115%.
In the case of `O=C([C@@H]1CSCN1C(=O)CC1Cc2ccccc2C1)N1CCC[C@H]1CO` [Example 1, 1-[3-(Indan-2-ylacetyl)-L-thioprolyl]-L-prolinol], the “death within 7 days (parenteral)” value in the data set on ICR mice is on record as “no death”.
Regarding `O=C[C@@H]1CCCN1C(=O)[C@@H]1CSCN1C(=O)CC1Cc2ccccc2C1` [Example 2, 1-[3-(Indan-2-ylacetyl)-L-thioprolyl]-L-prolinal], the “Anti-hypoxic Activity” value in the data set on ICR male mice is recorded as 120%.
Take `O=C([C@@H]1CSCN1C(=O)C[C@H]1CCc2ccccc2C1)N1CSC[C@H]1CO` [Example 5, 3-[3-((S)-1,2,3,4-tetrahydronaphthalen 2-ylacetyl)-L-thioprolyl]-L-thioprolinol]: the “Anti-hypoxic Activity” value with ICR male mice stood at 115%. Moreover, in the data set on ICR mice, the “death within 7 days (parenteral)” value is reported as “no death”.
With `O=C([C@@H]1CCCN1C(=O)c1cc2ccccc2o1)N1CCC[C@H]1CO` [Example 6, 1-[1-(benzofuran-2-ylcarbonyl)-L-prolyl]-L-prolinol], the “Anti-hypoxic Activity” value in the data set on ICR male mice was 128%.
Consider `O=C[C@@H]1CSCN1C(=O)[C@@H]1CCCN1C(=O)CC1Cc2ccccc2C1` [Example 8, 3-[1-(indan-2-ylacetyl)-L-prolyl]-L-thioprolinal], for which, in data set [1] (setting [2]), the IC50 stood at 0.0012 µM. The “Anti-hypoxic Activity” value in the data set on ICR male mice is reported as 120%. For the same molecule, the “death within 7 days (parenteral)” value in the data set on ICR mice is listed as “no death”.
Consider `O=C[C@@H]1CCCN1C(=O)[C@@H]1CSCN1C(=O)C[C@H]1CCc2ccccc2C1` [Example 9, 1-[3-((S)-1,2,3,4-tetrahydronaphthalen-2-ylacetyl)-L-thioprolyl]-L-prolinal], for which the “Anti-hypoxic Activity” value in the data set on ICR male mice was found to be 123%. The “death within 7 days (oral)” value in the data set with Male ICR mice is on record as “no death”.
As to `O=C[C@@H]1CSCN1C(=O)[C@@H]1CSCN1C(=O)C[C@H]1CCc2ccccc2C1` [Example 10, 3-[3-((S)-1,2,3,4-tetrahydronaphthalen-2-ylacetyl)-L-thioprolyl]-L-thioprolinal], the 50% inhibitory concentration (IC50) in data set [1] (setting [2]) came to 0.0014 µM. Besides, the “Anti-hypoxic Activity” value in the data set on ICR male mice is listed as 129%.
Consider `O=C[C@@H]1CCCN1C(=O)[C@@H]1CCCN1C(=O)c1cc2ccccc2o1` [Example 11, 1-[1-(benzofuran-2-ylcarbonyl)-L-prolyl]-L-prolinal], for which, in data set [1] (setting [2]), the IC50 is 0.069 µM.
Turning to `O=C[C@@H]1CSCN1C(=O)[C@@H]1CCCN1C(=O)c1cc2ccccc2o1` [Example 12, 3-[1-(benzofuran-2-ylcarbonyl)-L-prolyl]-L-thioprolinal], the “death within 7 days (parenteral)” value in the data set on ICR mice was “no death”.
Consider `O=C([C@@H]1CSCN1C(=O)C[C@H]1CCc2ccccc2C1)N1CCC[C@H]1C=NO` [Example 25, (2S)-1-[3-((S)-1,2,3,4-Tetrahydronaphthalen-2-ylacetyl)-L-thioprolyl]-2-pyrrolidine aldoxime], for which, in data set [1] (setting [2]), the IC50 turned out to be 0.016 µM.
